# Reference: article PMC6349869, “The palladacycle complex AJ-5 induces apoptotic cell death while reducing autophagic flux in rhabdomyosarcoma cells” (Cell Death Discovery, 2019)
# Assays:
# [1] = system: FL-OH-1 cells; experiment: MTT cell viability assay, FL-OH-1; format: cell-based, human; conditions: FL-OH-1 (eRMS), 48 h
# Description: (§1) RH30 human aRMS cells (kindly provided by Associate Professor Judith Davie, Southern Illinois University), AX-OH-1 human aRMS and FL-OH-1 human eRMS cells (kindly provided by Professor Stefan Bath, University of Cape Town) were cultured in Roswell Park Memorial Institute Medium (RPMI)-1640 (Sigma Aldrich, Missouri, USA). […] Cell morphology was monitored using an Olympus CKX41 inverted microscope (MSAC Ltd, UK) and imaged with an EVOS™ XL AMEX1000 Core Imaging System (Thermo Fisher Scientific, Massachusetts, USA).
# (§2) Cells were seeded in 96-well plates and treated the next day with a range of AJ-5 concentrations (0.1–1.0 μM) or vehicle ([…]) for 48 h. Cell viability was measured using the 3-(4,5-dimethylthiazol-2-yl)-2,5-diphenyl-trazolium bromide (MTT) assay (11465007001; Sigma Aldrich) according to the manufacturer’s instructions. Mean cell viability was calculated as a percentage of the mean vehicle control. At least three independent experiments in quadruplicate were performed from which the half maximal inhibitory concentration (IC50) was determined using GraphPad Prism version 6.0 (GraphPad Software, California, USA). The selectivity index (SI) was determined by dividing the IC50 of a normal cell line by the IC50 of a cancer cell line.
# [2] = system: SW1353 cells; experiment: MTT cell viability assay, SW1353 chondrosarcoma; format: cell-based, human; conditions: 48 h
# Description: as §1, §2
# [3] = system: RMS cells (RH30, AX-OH-1, RD, FL-OH-1); experiment: Clonogenic assay, RMS cells; format: cell-based, human
# Description: Cells were seeded in 6-well plates and treated the following day with IC50, ½ IC50, ¼ IC50 AJ-5 and vehicle. After 24 h, 800–4000 cells were seeded in 35 mm dishes in drug-free medium. Formation of colonies were monitored and after 7–21 days cells were fixed with 3:1 methanol:acetic acid and stained with 0.5% crystal violet (Sigma Aldrich) in 100% methanol. Colonies were imaged and percentage colony area was determined using ImageJ v1.50i[58] and the plugin ColonyArea[59]. Colony area was determined for each drug concentration and expressed as a percentage of vehicletreated control.
# [4] = system: phosphorylated RIP3 and MLKL; experiment: Western blot of necroptosis markers (preliminary, data not shown); format: cell-based
compound,measurement,setting,value
CC(C)c1cccc(C(C)C)c1[N+]1=Cc2cccc[c]2[Pd-2]1([Cl])[P+](CC[P+](c1ccccc1)(c1ccccc1)[Pd-2]1([Cl])[c]2ccccc2C=[N+]1c1c(C(C)C)cccc1C(C)C)(c1ccccc1)c1ccccc1 (stereo not drawn) [AJ-5],IC50,[1],≤ 200 nM
same,IC50,[2],< 300 nM
same,Colony formation at IC50 concentrations,"[3]; 24 h treatment at IC50, colonies after 7–21 days",only a few or no RMS cell colonies formed
same,Ability of RMS cells to survive and proliferate (colony area),"[3]; 24 h treatment with ¼ IC50, ½ IC50 or IC50, colonies after 7–21 days",significantly inhibits the ability of RMS cells to survive and proliferate
same,Active (phosphorylated) MLKL,[4],increased levels
same,Phosphorylated RIP3,[4],increase
